ChEMBL document CHEMBL1130855, “Carbohydrate modifications in the spirostane cellobioside cholesterol absorption inhibitor series” (1998)

Legend:
Cricetinae gen. sp. [1] = assay: Inhibitory activity against cholesterol absorption in the hamster.; format: functional
Cricetinae gen. sp. [2] = assay: Inhibition of cholesterol absorption in the hamster.; format: functional

Structure (SMILES) | Relative potency (Cricetinae gen. sp. [1]) | ED50 (Cricetinae gen. sp. [2])
C[C@@H]1CC[C@@]2(OC1)O[C@H]1C[C@H]3[C@@H]4CC[C@H]5C[C@@H](O[C@@H]6O[C@@H](CO)[C@@H](O[C@@H]7O[C@@H](COC(=O)Nc8ccccc8F)[C@@H](O)[C@H](O)[C@@H]7O)[C@H](O)[C@@H]6O)CC[C@]5(C)[C@H]4C(=O)C[C@]3(C)[C@H]1[C@@H]2C | 8 | 0.2 mg/kg
C[C@@H]1CC[C@@]2(OC1)O[C@H]1C[C@H]3[C@@H]4CC[C@H]5C[C@@H](O[C@@H]6O[C@@H](CO)[C@@H](O[C@@H]7O[C@@H](COC(=O)Nc8ccccc8F)C[C@H](O)[C@@H]7O)[C@H](O)[C@@H]6O)CC[C@]5(C)[C@H]4CC(=O)[C@]3(C)[C@H]1[C@@H]2C | 5 | 0.15 mg/kg
C[C@@H]1CC[C@@]2(OC1)O[C@H]1C[C@H]3[C@@H]4CC[C@H]5C[C@@H](O[C@@H]6O[C@@H](CO)[C@@H](O[C@@H]7O[C@@H](CO)C[C@H](O)[C@@H]7O)[C@H](O)[C@@H]6O)CC[C@]5(C)[C@H]4CC(=O)[C@]3(C)[C@H]1[C@@H]2C | 433 | 13 mg/kg
C[C@@H]1CC[C@@]2(OC1)O[C@H]1C[C@H]3[C@@H]4CC[C@H]5C[C@@H](O[C@@H]6O[C@@H](COC(=O)Nc7ccccc7F)[C@@H](O[C@@H]7O[C@@H](COC(=O)Nc8ccccc8F)[C@@H](O)[C@H](O)[C@@H]7O)[C@H](O)[C@@H]6O)CC[C@]5(C)[C@H]4C(=O)C[C@]3(C)[C@H]1[C@@H]2C | 32 | 0.8 mg/kg
C[C@@H]1CC[C@@]2(OC1)O[C@H]1C[C@H]3[C@@H]4CC[C@H]5C[C@@H](O[C@@H]6O[C@@H](CO)[C@@H](O[C@@H]7O[C@@H](CO)[C@@H](OC(=O)Nc8ccccc8F)[C@H](OC(=O)Nc8ccccc8F)[C@@H]7O)[C@H](O)[C@@H]6O)CC[C@]5(C)[C@H]4C(=O)C[C@]3(C)[C@H]1[C@@H]2C | 4 | 0.1 mg/kg
C[C@@H]1CC[C@@]2(OC1)O[C@H]1C[C@H]3[C@@H]4CC[C@H]5C[C@@H](O[C@@H]6O[C@@H](CO)[C@@H](O[C@@H]7O[C@@H](CO)[C@@H](OC(=O)Nc8ccccc8F)[C@H](O)[C@@H]7O)[C@H](O)[C@@H]6O)CC[C@]5(C)[C@H]4CC(=O)[C@]3(C)[C@H]1[C@@H]2C | 5 | 0.15 mg/kg
C[C@@H]1CC[C@@]2(OC1)O[C@H]1C[C@H]3[C@@H]4CC[C@H]5C[C@@H](O[C@@H]6O[C@@H](CO)[C@@H](O[C@@H]7O[C@@H](C)[C@@H](OC(=O)Nc8ccccc8F)[C@H](O)[C@@H]7O)[C@H](O)[C@@H]6O)CC[C@]5(C)[C@H]4CC(=O)[C@]3(C)[C@H]1[C@@H]2C | 1 | 0.03 mg/kg
C[C@@H]1CC[C@@]2(OC1)OC1C[C@H]3[C@@H]4CC[C@H]5C[C@@H](O[C@@H]6O[C@@H](C)[C@@H](O[C@@H]7O[C@@H](CO)[C@@H](O)[C@H](O)[C@@H]7O)[C@H](O)[C@@H]6O)CC[C@]5(C)[C@H]4CC(=O)[C@]3(C)C1[C@@H]2C (stereo partly specified) | 167 | 5 mg/kg
C[C@@H]1CC[C@@]2(OC1)O[C@H]1C[C@H]3[C@@H]4CC[C@H]5C[C@@H](O[C@@H]6O[C@@H](CO)[C@@H](O[C@@H]7O[C@@H](COC(=O)Nc8ccccc8F)[C@@H](OC(=O)Nc8ccccc8F)[C@H](O)C7O)[C@H](O)[C@@H]6O)CC[C@]5(C)[C@H]4CC(=O)[C@]3(C)[C@H]1[C@@H]2C (stereo partly specified) | 2.3 | 0.07 mg/kg
C[C@@H]1CC[C@@]2(OC1)O[C@H]1C[C@H]3[C@@H]4CC[C@H]5C[C@@H](O[C@@H]6O[C@@H](C)[C@@H](O[C@@H]7O[C@@H](C)[C@@H](O)[C@H](O)[C@@H]7O)[C@H](O)[C@@H]6O)CC[C@]5(C)[C@H]4CC(=O)[C@]3(C)[C@H]1[C@@H]2C | 167 | 5 mg/kg
C[C@@H]1CC[C@@]2(OC1)O[C@H]1C[C@H]3[C@@H]4CC[C@H]5C[C@@H](O[C@@H]6O[C@@H](CO)[C@@H](O[C@@H]7O[C@@H](COC(=O)Nc8ccccc8F)[C@@H](O)[C@H](O)[C@@H]7O)[C@H](O)[C@@H]6O)CC[C@]5(C)[C@H]4CC(=O)[C@]3(C)[C@H]1[C@@H]2C | 10 | 0.3 mg/kg
C[C@@H]1CC[C@@]2(OC1)O[C@H]1C[C@H]3[C@@H]4CC[C@H]5C[C@@H](O[C@@H]6O[C@@H](CO)[C@@H](O[C@@H]7O[C@@H](C)[C@@H](O)[C@H](O)[C@@H]7O)[C@H](O)[C@@H]6O)CC[C@]5(C)[C@H]4CC(=O)[C@]3(C)[C@H]1[C@@H]2C | 107 | 3.2 mg/kg
C[C@@H]1CC[C@@]2(OC1)O[C@H]1C[C@H]3[C@@H]4CC[C@H]5C[C@@H](O[C@@H]6O[C@@H](COC(=O)Nc7ccccc7F)C(O[C@@H]7O[C@@H](CO)C(O)[C@H](O)C7O)[C@H](O)C6O)CC[C@]5(C)[C@H]4C(=O)C[C@]3(C)[C@H]1[C@@H]2C (stereo partly specified) | 280 | 7 mg/kg
C[C@@H]1CC[C@@]2(OC1)O[C@H]1C[C@H]3[C@@H]4CC[C@H]5C[C@@H](O[C@@H]6O[C@@H](COC(=O)Nc7ccccc7F)[C@@H](O[C@@H]7O[C@@H](COC(=O)Nc8ccccc8F)[C@@H](OC(=O)Nc8ccccc8F)[C@H](O)[C@@H]7O)[C@H](O)[C@@H]6O)CC[C@]5(C)[C@H]4C(=O)C[C@]3(C)[C@H]1[C@@H]2C | 8 | 0.2 mg/kg
C[C@@H]1CC[C@@]2(OC1)O[C@H]1C[C@H]3[C@@H]4CC[C@H]5C[C@@H](O[C@@H]6O[C@@H](CO)[C@@H](O[C@@H]7O[C@@H](CO)[C@@H](O)[C@H](O)[C@@H]7O)[C@H](O)[C@@H]6O)CC[C@]5(C)[C@H]4CC(=O)[C@]3(C)[C@H]1[C@@H]2C [CELLOBIOSYL HECOGENIN] | 333 | 10 mg/kg
C[C@@H]1CC[C@@]2(OC1)O[C@H]1C[C@H]3[C@@H]4CC[C@H]5C[C@@H](O[C@@H]6O[C@@H](CO)[C@@H](O[C@@H]7O[C@@H](CO)[C@@H](OC(=O)Nc8ccccc8F)[C@H](O)[C@@H]7O)[C@H](O)[C@@H]6O)CC[C@]5(C)[C@H]4C(=O)C[C@]3(C)[C@H]1[C@@H]2C | 4 | 0.1 mg/kg
C[C@@H]1CC[C@@]2(OC1)O[C@H]1C[C@H]3[C@@H]4CC[C@H]5C[C@@H](O[C@@H]6O[C@@H](CO)[C@@H](O[C@@H]7O[C@@H](C)C[C@H](O)[C@@H]7O)[C@H](O)[C@@H]6O)CC[C@]5(C)[C@H]4CC(=O)[C@]3(C)[C@H]1[C@@H]2C | 100 | 3 mg/kg
C[C@@H]1CC[C@@]2(OC1)O[C@H]1C[C@H]3[C@@H]4CC[C@H]5C[C@@H](O[C@@H]6O[C@@H](CO)[C@@H](O[C@@H]7O[C@@H](COC(=O)Nc8ccccc8F)[C@@H](OC(=O)Nc8ccccc8F)[C@H](O)C7O)[C@H](O)[C@@H]6O)CC[C@]5(C)[C@H]4C(=O)C[C@]3(C)[C@H]1[C@@H]2C (stereo partly specified) | 1 | 0.025 mg/kg
